{"source": "patent US12661362B2", "about": "“Methods for the prevention and treatment of hearing loss” (Ting Therapeutics LLC, priority 2020, dated 2026)", "key": {"HEI-OC1 cells": {"system": "HEI-OC1 cells", "experiment": "Caspase-Glo 3/7 assay in HEI-OC1 cells treated with Cisplatin", "assay_type": "cell-based, mouse", "procedure": "Now referring to FIG. 3A, and FIGS. 3D-3E, compounds protect from cisplatin toxicity in the mouse inner ear cell line. House Ear Institute-Organ of Corti 1 (HEI-OC1) cells (House Research Institute) were maintained in high-glucose Dulbecco's modified Eagle medium supplemented with 10% fetal bovine serum (Life Technologies, USA) at 33° C. and 10% CO2 as previously described (Kalinec et al., 2003). Cells were seeded at 8,000 cells/well in 96 well plates and left to attach overnight. Now referring to FIG. 3A, For the drug screening, HEI-OC1 cells were pretreated with 30 drug candidates at concentrations ranging from 2 nM to 40 μM one hour before receiving cisplatin. The cisplatin dose (50 μM) was based on our previously published dose response curve. The cells were co-incubated with cisplatin and drug candidates for an additional 19 hours prior to Caspase-Glo 3/7 assay (Promega, Madison, WI) as previously shown. Additionally, […] kenpaullone-treated cells were used as positive controls to validate our results. The DMSO concentration in drug preparation was adjusted to 0.1% v/v and it was verified that 0.5% DMSO had no effect on the cell death kinetics (Hall et al., 2014). Results of the assay were run in triplicate and normalized to cisplatin-only and media-only controls. The percent caspase activity was used to determine the relative protective effect of each compound. The luminescence detection representing caspase activity in each well was obtained using a Cytation Hybrid Multi-Mode Reader (Biotek, Winooski, VT, USA). The percent protection of the cells was calculated using caspase 3/7 readouts and the following formula: […]\nIn the following examples, Niclosamide, 5-chloro-N-(2-chloro-4-nitrophenyl)-2-hydroxy-benzamide, with a ≥95% purity was used for all experiments (Cayman Chemical, USA)."}, "FVB/NJ mice": {"system": "FVB/NJ mice", "experiment": "Safety monitoring of drugs IP in FVB/NJ mice, with or without Cisplatin", "assay_type": "in vivo, mouse", "procedure": "To investigate the drugs' effects on mammalian auditory function in vivo, we first treated 5-7 weeks old FVB/NJ mice with […] drug candidates: Niclosamide (10 mg/kg/day), Ingenol (0.3 mg/kg/day), Elesclomol (5 mg/kg/day), for 4 consecutive days (IP) to monitor safety of the drugs. All tested doses were determined based on previous published data showing maximum non-toxic dose through intraperitoneal (IP) injection.\nBaseline auditory brainstem response (ABR) were measured on 16 mice divided in 3 groups receiving Ingenol, Elesclomol, and Niclosamide. The mice received the drug doses described above, then on day 2 of drug injection mice also received 30 mg/kg Cisplatin (IP; 4 mice per group)."}, "zebrafish neuromast HCs": {"system": "zebrafish neuromast HCs", "experiment": "Niclosamide/ezetimibe combination hair cell protection in Cisplatin-treated zebrafish (Loewe synergy)", "assay_type": "in vivo", "details": "concentrations above 2 nM, cisplatin 300 μM", "procedure": "Now referring to FIGS. 6A-6B, 5 dpf zebrafish were either incubated with vehicle (DMSO), cisplatin alone at 300 μM concentration, cisplatin and ezetimibe (0.002 μM to 13.3 μM), cisplatin and niclosamide (0.02 nM to 18.3 nM), or cisplatin and combination ezetimibe/niclosamide. After 6 hours, animals were transferred to fresh water for 1 hour and then sacrificed and processed for immunohistochemistry and HC count as described above. To further elucidate whether Niclosamide, synergizes with Nrf2 activators to protect zebrafish HCs from Cisplatin damage, we tested the extent of HC damage in presence of Niclosamide and a Nrf2 activator, ezetimibe.\nA three-dimensional contour plot (A) showing dose response of neuromast hair cell protection in zebrafish treated with varying concentrations of niclosamide and ezetimibe mapped to synergy distribution. […] Other dose combinations showing synergy are shown in dark blue boxes. Dose combinations with scores of 0 and 1 show additive effect. *P<5×10−2; **P<10−3, ***P<10−4 versus control fish, One-sample t-test run by the Combenefit software44. Data is shown as mean±standard deviation.\nZebrafish were treated with combinations of Niclosamide (ranging from 0.02-18.3 nM) and EZ (ranging from 0.0183-13.3 μM)."}, "[1]": {"experiment": "HPLC analysis of interaction between Niclosamide and Cisplatin in vitro", "assay_type": "physicochemical", "details": "ratios 1:1 and 1:10, 37° C.", "procedure": "A simple explanation of Niclosamide's protection against CIHL is that it directly inactivates Cisplatin, similar to several otoprotectants in clinical trials (STS, ebselen, etc.). To investigate any possible interaction between Niclosamide and Cisplatin, we developed an HPLC method in vitro. The method may use the following: HPLC: Shimadzu Prominence-i LC-2030C, column: Agilent Eclipse Plus C18, PN-959961-902, 5% ACN, 95% water: 0-2 min; continuous increase of ACN to 95%: 2-12 min; hold at 95% ACN: 12-17 min; continuous decrease of ACN to 5%: 17-20 min, flow rate: 1 mL/min; Temperature 37° C., run time: 20 min. Additional parts of the method may use a stock solution of 1 mg/ml prepared in suitable solvent and mixed to create a ratio of cisplatin and niclosamide at 1:1 and 1:10 in the final injecting solution, along with the pure cisplatin and niclosamide. […] Our in vitro results are consistent with its synergistic interaction with Cisplatin in RCC xenograft models and its protection against noise injury."}, "A549": {"system": "A549", "experiment": "Survival of A549 cells with or without Cisplatin and Niclosamide", "assay_type": "cell-based", "details": "10 nM", "procedure": "Now referring to FIG. 8, In vitro model of […] incubated with or without Cisplatin and 10 nM of Niclosamide. Cells were maintained in culture with the aid of Matrigel as previously described in Kelley and Driver, Curr. Protoc. Neurosci. Ch.(4); Unit(4); 34.1-10 (2010). After cells had been in culture for 1 d, growth medium DMEM (12430-054; GIB CO Life Technologies, with 1% FBS [16000-044; GIB CO Life Technologies] and 50 μg/ml ampicillin) with or without test compounds may be added for preincubation for 1 hr. at 37° C. in 5% Co2, and may be followed by incubation with 50 μM Cisplatin (479306; Sigma-Aldrich) with or without the test compound in growth medium for 24 hr. at 37° C. A Cisplatin concentration of 50 μM may be used for the explant assay due to its consistent showing of decreases outer hair cells by about −40% in the mouse cochlea after 24 hours. Cochlea may be fixed in 4% PFA and stained for actin with Alex Fluor 568 phalloidin to determine the viability of the HCs. Cochlea may also be stained by DAPI, FM1-43 dye uptake, and immunohistochemical staining for known HC markers (including parvalbumin and myosin 7a. Cochlea may be imaged by confocal microscopy. Two 160-μm regions from middle turns may be photographed, and the number of intact HCs can be counted."}, "[2]": {"details": "20 mg/kg/day IP, 4 consecutive days"}}, "data": [{"smiles": "O=C(Nc1ccc([N+](=O)[O-])cc1Cl)c1cc(Cl)ccc1O", "note": "[Niclosamide, 5-chloro-N-(2-chloro-4-nitrophenyl)-2-hydroxy-benzamide]", "values": [{"measurement": "share of the dosage range tested with some level of protection", "setting": "HEI-OC1 cells; 2 nM to 40 μM tested", "result": "over 80%"}, {"measurement": "protection against Cisplatin damage compared to kenpaullone", "setting": "HEI-OC1 cells; HEI-OC1 cells", "result": "comparable levels of protection to kenpaullone"}, {"measurement": "protection compared to sodium thiosulfate, ebselen, dexamethasone, N-acetylcysteine", "setting": "HEI-OC1 cells; HEI-OC1 cells", "result": "better protection than four other benchmark compounds"}, {"measurement": "caspase activity", "setting": "HEI-OC1 cells; at a dosage of ~4.4 μM, Cisplatin 50 μM", "result": 0, "unit": "%"}, {"measurement": "caspase-3/7 activity relative to control cells", "setting": "HEI-OC1 cells; dose of 4.4 μM, Cisplatin 50 μM", "result": "reduce caspase activity to comparable levels as control cells"}, {"measurement": "clinical signs", "setting": "FVB/NJ mice; [2]", "result": "sign of pain and distress including mouse hunch"}, {"measurement": "weight loss", "setting": "FVB/NJ mice; [2]", "result": "20-30%"}, {"measurement": "weight loss, pain and distress", "setting": "FVB/NJ mice; Niclosamide 10, Ingenol 0.3, Elesclomol 5 mg/kg/day IP, 4 consecutive days", "result": "None of the mice showed reduced weight loss or signs of pain and distress"}, {"measurement": "general toxicity versus Cisplatin alone", "setting": "FVB/NJ mice; combination with Cisplatin 30 mg/kg single injection", "result": "no general toxicity"}, {"measurement": "weight loss", "setting": "FVB/NJ mice; drug IP daily plus 30 mg/kg Cisplatin IP on day 2", "result": "less than 10%"}, {"measurement": "weight loss or abnormal behavior", "setting": "FVB/NJ mice; maximum IP doses approved by IACUC", "result": "no weight loss or abnormal behavior"}, {"measurement": "survival", "setting": "FVB/NJ mice; plus 30 mg/kg Cisplatin, through day 5 post-Cisplatin injection", "result": "all survived"}, {"measurement": "HC per neuromast counts, compound alone", "setting": "zebrafish neuromast HCs", "result": "higher counts"}, {"measurement": "chemical interaction with Cisplatin (third HPLC peak)", "setting": "[1]", "result": "no interaction between Niclosamide and Cisplatin"}, {"measurement": "effect on Cisplatin-tumor killing activity", "setting": "A549", "result": "did not affect Cisplatin-tumor killing activity"}]}]}
